# Data published in patent publication US20080220416A1, “Compositions for Inhibiting Cell Growth and Inducing Apoptosis in Cancer Cells and Methods of Use Thereof” (THE BOARD OF TRUSTEES OF THE UNIVERSITY OF ILLINOI, priority 2004, published 2008).
# Square brackets hold non-standard residues; d marks the D form. Peptide text beside a SMILES is read from it. * marks the point of attachment. Nle = CCCC[C@H](N)C(=O)O; Cbz = O=C(OCc1ccccc1)*
# How the values were obtained:
# CaSki cells = experiment: LY411,575 combinations in CaSki cells, growth inhibition and isobologram analysis; assay type: cell-based, human; conditions: CaSki
# Description: To evaluate the possibility that inhibition of Notch signaling may sensitize advanced cervical cancers to the effect of cisplatin chemotherapy because Notch-1 protects these cells from apoptosis through the AKT and NF-κB pathways, a non-peptide, benzodiazepine gamma-secretase inhibitor, LY411,575 (Wong et al., 2004, J Biol. Chem. 279:12876-82) was tested in combination with a AKT inhibitor (AKT inhibitor I) or a proteasome inhibitor (MG-132) for effects on cell growth. The latter class of drugs is thought to act primarily by preventing NF-KB activation (Adams, J, 2002, Curr Opin Oncol 14:628-634; Richardson, P, 2003, Cancer Treat Rev 29 Suppl 1:33-39) caused by proteasome-mediated degradation of IκB.
# To determine whether LY411,575 potentiates the effect of AKT inhibitor I or MG-132, CaSki cells were treated with (a) LY411,575 (6.25 μM to 50 μM) and AKT inhibitor 1 (0.5 μM to 75 μM), or (b) LY411,575 (1.5 μM to 200 μM) and MG-132 (0.05 μM to 0.2). Following the drug treatment, the cells were tested for growth inhibition as described above. LY411,575 was synthesized according to methods well known in the art (e.g., see WO-09828268, which is incorporated by reference), and AKT inhibitor I and MG-132 were purchased from Calbiochem.
# The IC50 values of LY411,575 in the presence of various concentrations of AKT inhibitor I or MG-132 were measured. […]
# [1] = system: C8161 melanoma tumor xenograft; experiment: C8161 melanoma tumor xenograft in Nude mice, z-Leu-Leu-Nle-CHO injections; assay type: in vivo
# Description: Assessment of tumor formation in Nude mice was performed by adapting the method described in Hendrix, M. J. et al., 1997, Am J Pathol 150:483-495. Tumors were established in Nude mice as follows. Briefly, 1×10^6 aggressive melanoma cells (C8161) (ATCC, Rockville, Md.) were injected subcutaneously in Nude mice on day 0, and the tumors were allowed to grow for 1 week. Beginning on day 8, mice received injections (100 μl) of DMSO carrier only (control group) or z-Leu-Leu-Nle-CHO (1 mM in DMSO) (Calbiochem, LaJolla, Calif.) (experimental group) every other day for 1 week. Tumor sizes (mm^2) were determined on day 7 prior to injections with or z-Leu-Leu-Nle-CHO or DMSO, and on day 14. Average tumor size for both groups was normalized, and size of tumors at 2 weeks was averaged. Detection of apoptosis in tissue sections was performed using TUNEL staining as described in Wrone-Smith et al, 1997, Am J Pathol. 151:1321-9.
# [2] = system: T47D:A18 breast cancer cells; experiment: Cytotoxicity assay in T47D:A18 breast cancer cells; assay type: cell-based; conditions: T47D:A18 (p53 wild-type, ERα-positive); 48 h; read-out: IC50, cell growth inhibition
# Description: Cytotoxicity and growth of transfected cells were estimated by a standard assay used for cancer drug screening, through the total amount of TCA-precipitated cell proteins after drug treatment (Likhitwitayawuid, K et al., 1993, J Nat Prod 56:30-38): 200 μl of cell suspension (10^5 cells/ml) were added to each well in a 96-well plate. After incubation at, 37° C., in 5% CO2 (30 minutes to 72 hours depending on the time course chosen), 50 μl 50% trichloroacetic acid was added to each well. After incubation at 4° C. for 1 hour, precipitates were washed with water 4-5 times and air dried overnight. One hundred μl of SRB solution (0.4% sulforhodamine B in 1% acetic acid, filtered before use) was added to each well for 30 minutes. Wells were washed with 1% acetic acid 4-5 times and air dried. Two hundred μl 10 mM Tris base was added to each well. Plates were shaken for 5-10 minutes and OD at 490 nm (OD490) was recorded via ELISA reader. To assay matrix invasion, 300 μl of cell suspension (10^6 cells/mL in serum-free medium) were added to invasion inserts (BioCoat Matrigel Invasion Chambers, Becton Dickinson, Bedford, Mass.) and incubated for 22 hours at 37° C., 5% CO2. Cells were stained with 0.9% crystal violet in 10% ethanol for 20 minutes. […] After removal of the non-invading cells from the interior of the inserts, stained invading cells were lysed in 10% acetic acid and OD595 was determined. […]
# [3] = system: MDA-MB-231 breast cancer cells; experiment: z-Leu-Leu-Nle-CHO plus Paclitaxel, growth inhibition of MDA-MB-231 cells; assay type: cell-based, human; conditions: 0-0.8 μM with Paclitaxel, 48 h
# Description: Three different types of breast cancer cells were contacted with varying concentrations of z-Leu-Leu-Nle-CHO (0-0.8 μM) and the mitotic poison Paclitaxel (0.01-1 μM). MDA-MB231 cells were obtained from ATCC (Rockville, Md.). T47D:C42 and T47D:A18 cells were a kind gift of Debra Tonetti (University of Illinois-Chicago). MDA-MB231 cells were cultured in DMEM medium with 10% FBS. T47D:C42 and T47D:A18 cells were propagated in RPMI 1640 with 10% FBS, 100 μM non-essential amino acid and 6 ng/ml insulin. Gamma-secretase inhibitor z-Leu-Leu-Nle-CHO (Calbiochem 565750) was dissolved in DMSO, aliquoted and stored at −80° C. Paclitaxel (Sigma, St. Louis Mo.) was dissolved in DMSO, aliquoted and stored at −80° C.
# To determine whether z-Leu-Leu-Nle-CHO treatment potentiates the effect of Paclitaxel on human breast cancer cells, MDA-MB231, T47D:C42 and T47D:A18 cells were treated for 48 h with 0-0.8 μM z-Leu-Leu-Nle-CHO and various concentrations of Paclitaxel (0.008-1 μM) Following the z-Leu-Leu-Nle-CHO and Paclitaxel treatment, the cells were tested for growth inhibition as described above in Example 13.
SMILES,"combination with LY411,575 in cytotoxicity assays / isobologram (CaSki cells)","average tumor size ([1]; 1 mM in DMSO, 100 μl every other day for 1 week, compared to DMSO, p=0.046, n=11)","apoptosis in tumor by immunofluorescent TUNEL assay ([1]; 1 week of treatment, 1 mM, versus DMSO carrier)",IC50 [2],effect on Paclitaxel cell growth inhibition [3]
"CC(C)C[C@@H](C=O)NC(=O)[C@H](CC(C)C)NC(=O)[C@H](CC(C)C)NC(=O)OCc1ccccc1 [MG-132, benzoxycarbonyl-Leucyl-Leucyl-Leucyl-aldehyde] (Cbz-Leu-Leu-Leu-aldehyde)",striking synergism,–,–,–,–
"CCCC[C@@H](C=O)NC(=O)[C@H](CC(C)C)NC(=O)[C@H](CC(C)C)NC(=O)OCc1ccccc1 [z-Leu-Leu-Nle-CHO, N-benzyloxycarbonyl-leucyl-leucyl-norleucinal] (Cbz-Leu-Leu-[Nle]-aldehyde)",–,significantly reduced tumor size,High levels of apoptosis,570 nM,moderately potentiated the effects of Paclitaxel on cell growth inhibition
